Source: publication PMC12663368 (Nature Communications, 2025)

Key:
Assay type in all cases: cell-based
[1] = tested on: SARS-CoV-2 BA.5 Lineage C (Mpro S144A); settings: for IC50: read-out: Mean of IC50 values ± SD
[2] = tested on: SARS-CoV-2 Wuhan-like Lineage B (Mpro M49L)
[3] = tested on: SARS-CoV-2 BA.5 Lineage D (Mpro P252L)
[4] = tested on: SARS-CoV-2 Wuhan-like Lineage A (Mpro Δ23G/T45I); settings: for IC50: read-out: Mean of IC50 values ± SD
[5] = read-out: Mean of IC50 values ± SD

| Compound | Fold-change relative to wild-type [1] [fold] | IC50 [1] [µM] | Fold-change relative to wild-type [2] [fold] | IC50 [2, 5] [µM] | Resistance level (class by IC50 fold-change) [3] | Fold-change relative to wild-type [4] [fold] | IC50 [4] [µM] | Resistance level (class by IC50 fold-change) [2] | Fold-change relative to wild-type [3] [fold] | IC50 [3, 5] [µM] |
| --- | --- | --- | --- | --- | --- | --- | --- | --- | --- | --- |
| Cn1cnc(Cn2c(=O)[nH]/c(=N\c3cc4cn(C)nc4cc3Cl)n(Cc3cc(F)c(F)cc3F)c2=O)n1 [ensitrelvir] | 28.84 | 25.4 ± 8.74 | 60.08 | 31.2 ± 1.06 | no meaningful shift | 32.06 | 16.7 ± 2.29 |  |  |  |
| CC(C)(C)[C@H](NC(=O)C(F)(F)F)C(=O)N1C[C@H]2[C@@H]([C@H]1C(=O)N[C@H](C#N)C[C@@H]1CCNC1=O)C2(C)C [nirmatrelvir] | 7.60 | 37 ± 0.9 |  |  |  | 0.18 | 1.4 ± 0.1 | no meaningful shift | 3.83 | 18.6 ± 0.48 |
| remdesivir |  |  |  |  |  |  |  |  | 3.41 |  |
